In patent publication US20230149415A1, “METHODS AND COMPOSITIONS FOR TREATING CANCER” (Engine Biosciences Pte. Ltd., priority 2020, published 2023):

Experiments:
[1] = molecular target: T1, PKMYT1 (Homo sapiens, UniProt Q99640); test: selective binding assay for PKMYT1; settings: in vitro potency
T1 sequence (Q99640 1-499): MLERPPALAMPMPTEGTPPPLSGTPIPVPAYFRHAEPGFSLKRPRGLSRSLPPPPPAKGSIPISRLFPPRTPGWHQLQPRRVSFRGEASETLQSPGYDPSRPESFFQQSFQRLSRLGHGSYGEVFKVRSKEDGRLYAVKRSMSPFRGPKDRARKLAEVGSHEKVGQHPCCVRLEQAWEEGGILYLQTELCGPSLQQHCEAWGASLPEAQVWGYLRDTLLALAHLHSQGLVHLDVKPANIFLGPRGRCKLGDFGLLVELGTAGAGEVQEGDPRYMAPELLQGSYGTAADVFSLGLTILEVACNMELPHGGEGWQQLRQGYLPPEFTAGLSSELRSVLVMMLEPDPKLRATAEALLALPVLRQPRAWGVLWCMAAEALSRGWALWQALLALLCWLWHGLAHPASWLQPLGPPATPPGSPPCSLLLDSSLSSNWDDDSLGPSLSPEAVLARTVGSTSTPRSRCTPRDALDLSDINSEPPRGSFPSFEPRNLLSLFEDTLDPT

[2] = molecular target: Wee1 (Homo sapiens, UniProt P30291); test: selective binding assay for Wee1; settings: in vitro potency
Sequence of Wee1 (P30291 whole entry): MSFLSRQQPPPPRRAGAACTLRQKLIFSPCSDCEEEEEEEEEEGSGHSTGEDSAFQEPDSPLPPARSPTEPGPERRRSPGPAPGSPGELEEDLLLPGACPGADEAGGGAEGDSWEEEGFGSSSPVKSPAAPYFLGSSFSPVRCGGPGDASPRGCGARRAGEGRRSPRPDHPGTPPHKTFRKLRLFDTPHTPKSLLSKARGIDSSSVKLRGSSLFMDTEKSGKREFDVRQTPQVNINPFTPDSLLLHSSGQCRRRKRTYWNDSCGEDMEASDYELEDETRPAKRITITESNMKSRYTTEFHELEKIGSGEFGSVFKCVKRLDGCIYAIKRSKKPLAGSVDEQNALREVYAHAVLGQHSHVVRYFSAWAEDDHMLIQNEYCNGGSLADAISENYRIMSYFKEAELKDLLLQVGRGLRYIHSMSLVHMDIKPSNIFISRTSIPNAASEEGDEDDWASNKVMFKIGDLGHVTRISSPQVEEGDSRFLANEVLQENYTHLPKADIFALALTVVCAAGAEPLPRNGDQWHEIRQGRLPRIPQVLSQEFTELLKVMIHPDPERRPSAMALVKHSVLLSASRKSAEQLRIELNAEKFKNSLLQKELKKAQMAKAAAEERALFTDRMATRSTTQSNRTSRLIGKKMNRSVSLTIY

IC50 [1]	IC50 [2]	Compound
8.2 nM		CCN(CC)CCOc1ccc(Nc2ncc3cc(-c4c(Cl)cccc4Cl)c(=O)n(C)c3n2)cc1 [PD0166285, 6-(2,6-dichlorophenyl)-2-((4-(2-(diethylamino)ethoxy)phenyl)amino)-8-methylpyrido[2,3-d]pyrimidin-7(8H)-one]
46 nM	5.3 nM	Cn1c(=O)c(-c2c(Cl)cccc2Cl)cc2cnc(Nc3ccc(N4CCOCC4)cc3)nc21 [PD173952, 6-(2,6-dichlorophenyl)-8-methyl-2-((4-morpholinophenyl)amino)pyrido[2,3-d]pyrimidin-7(8H)-one]
